Measured values reported in US10323038B2, “Pyrazole compounds and methods of making and using same” (ABIDE THERAPEUTICS, INC., priority 2015, dated 2019).

What was measured:
[1] = target: MAGL (Mus musculus (Mouse), UniProt O35678); assay: In vitro competitive activity-based protein profiling, MAGL (mouse); type: biochemical; settings: for inhibition at 1 µM: read-out: MAGL % inh. 1 μM (mouse)
Description: (§1) In Vitro Competitive Activity-Based Protein Profiling.
(§2) Proteomes (mouse brain membrane fraction or cell lysates for mouse assays; human prefrontal cortex or cell membrane fractions for human assays) (50 μL, 1.0 mg/mL total protein concentration) were preincubated with varying concentrations of inhibitors at 37° C. After 30 min, FP—Rh or HT-01 (1.0 μL, 50 μM in DMSO) was added and the mixture was incubated for another 30 min at 37° C. Reactions were quenched with SDS loading buffer (15 μL-4×) and run on SDS-PAGE. Following gel imaging, serine hydrolase activity was determined by measuring fluorescent intensity of gel bands corresponding to MAGL and FAAH using ImageJ 1.43u software.

[2] = target: FAAH (Mus musculus (Mouse), UniProt O08914); assay: In vitro competitive activity-based protein profiling, FAAH (mouse); type: biochemical; settings: for inhibition at 1 µM: read-out: FAAH % inh. 1 μM (mouse)
Description: as §1, §2

Chain of FAAH (O08914 whole entry): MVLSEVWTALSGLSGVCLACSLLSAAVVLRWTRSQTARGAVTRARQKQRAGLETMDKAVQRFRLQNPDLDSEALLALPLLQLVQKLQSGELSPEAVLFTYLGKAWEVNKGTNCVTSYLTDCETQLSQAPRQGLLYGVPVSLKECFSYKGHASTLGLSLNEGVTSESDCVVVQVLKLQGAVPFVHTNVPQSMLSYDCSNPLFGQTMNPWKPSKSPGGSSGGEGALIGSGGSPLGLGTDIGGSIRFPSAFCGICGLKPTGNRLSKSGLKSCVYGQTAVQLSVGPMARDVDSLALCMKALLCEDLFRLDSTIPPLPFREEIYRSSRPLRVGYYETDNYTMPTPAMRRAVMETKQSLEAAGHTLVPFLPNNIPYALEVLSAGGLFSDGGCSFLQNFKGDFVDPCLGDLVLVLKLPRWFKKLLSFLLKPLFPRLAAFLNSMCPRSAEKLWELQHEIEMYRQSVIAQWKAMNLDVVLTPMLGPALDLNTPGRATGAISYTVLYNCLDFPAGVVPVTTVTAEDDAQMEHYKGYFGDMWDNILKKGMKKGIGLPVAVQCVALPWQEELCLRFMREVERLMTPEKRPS
Chain of MAGL (O35678 whole entry): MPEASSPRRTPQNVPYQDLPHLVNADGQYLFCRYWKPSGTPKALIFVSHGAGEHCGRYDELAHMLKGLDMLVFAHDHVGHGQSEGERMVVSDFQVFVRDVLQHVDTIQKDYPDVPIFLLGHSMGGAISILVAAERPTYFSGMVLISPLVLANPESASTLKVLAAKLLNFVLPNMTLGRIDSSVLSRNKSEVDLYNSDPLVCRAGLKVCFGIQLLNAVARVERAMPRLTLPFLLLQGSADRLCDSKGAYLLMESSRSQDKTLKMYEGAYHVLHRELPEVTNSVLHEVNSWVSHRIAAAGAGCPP

| Structure (SMILES) | inhibition at 1 µM [1] [%] | inhibition at 1 µM [2] [%] | IC50 [1] [µM] | IC50 [2] [µM] |
| --- | --- | --- | --- | --- |
| CC(=O)N(C)c1cnn(C(=O)N2CCC3(CC2)CN(Cc2ccc(N4CCOCC4)cc2Cl)C3)c1 [Example 28, N-(1-(2-(2-chloro-4-morpholinobenzyl)-2,7-diazaspiro[3.5]nonane-7-carbonyl)-1H-pyrazol-4-yl)-N-methylacetamide] | ≥ 75 | ≥ 75 |  |  |
| CC(=O)N(C)c1cnn(C(=O)N2CCC3(CC2)CN(Cc2ccc(N4CCOCC4)cc2C)C3)c1 [Example 29, N-methyl-N-(1-(2-(2-methyl-4-morpholinobenzyl)-2,7-diazaspiro[3.5]nonane-7-carbonyl)-1H-pyrazol-4-yl)acetamide] | ≥ 75 | 25 to 50 |  |  |
| CC(=O)N(C)c1cnn(C(=O)N2CCC3(CC2)CN(Cc2cccc(N4CCCC4)c2)C3)c1 [Example 30, N-methyl-N-(1-(2-(3-(pyrrolidin-1-yl)benzyl)-2,7-diazaspiro[3.5]nonane-7-carbonyl)-1H-pyrazol-4-yl)acetamide] | ≥ 75 | ≥ 75 |  |  |
| CC(=O)N(C)c1cnn(C(=O)N2CCC3(CC2)CN(Cc2ccc(F)cc2)C3)c1 [Example 31, N-(1-(2-(4-fluorobenzyl)-2,7-diazaspiro[3.5]nonane-7-carbonyl)-1H-pyrazol-4-yl)-N-methylacetamide] | ≥ 75 | 25 to 50 |  |  |
| CC(=O)N(C)c1cnn(C(=O)N2CCC3(CC2)CN(Cc2ccc(C)cc2)C3)c1 [Example 32, N-methyl-N-(1-(2-(4-methylbenzyl)-2,7-diazaspiro[3.5]nonane-7-carbonyl)-1H-pyrazol-4-yl)acetamide] | ≥ 75 | 25 to 50 |  |  |
| COc1ccc(CN2CC3(CCN(C(=O)n4cc(N(C)C(C)=O)cn4)CC3)C2)cc1 [Example 33, N-(1-(2-(4-methoxybenzyl)-2,7-diazaspiro[3.5]nonane-7-carbonyl)-1H-pyrazol-4-yl)-N-methylacetamide] | 50 to 75 | 25 to 50 |  |  |
| CC(=O)N(C)c1cnn(C(=O)N2CCC3(CC2)CN(Cc2cccc(Cl)c2)C3)c1 [Example 34, N-(1-(2-(3-chlorobenzyl)-2,7-diazaspiro[3.5]nonane-7-carbonyl)-1H-pyrazol-4-yl)-N-methylacetamide] | ≥ 75 | ≥ 75 | ≤ 0.1 | ≤ 0.1 |
| CC(=O)N(C)c1cnn(C(=O)N2CCC3(CC2)CN(Cc2cccc(F)c2)C3)c1 [Example 35, N-(1-(2-(3-fluorobenzyl)-2,7-diazaspiro[3.5]nonane-7-carbonyl)-1H-pyrazol-4-yl)-N-methylacetamide] | ≥ 75 | ≥ 75 |  |  |
| CC(=O)N(C)c1cnn(C(=O)N2CCC3(CC2)CN(Cc2cccc(C)c2)C3)c1 [Example 36, N-methyl-N-(1-(2-(3-methylbenzyl)-2,7-diazaspiro[3.5]nonane-7-carbonyl)-1H-pyrazol-4-yl)acetamide] | ≥ 75 | ≥ 75 |  |  |
| COc1cccc(CN2CC3(CCN(C(=O)n4cc(N(C)C(C)=O)cn4)CC3)C2)c1 [Example 37, N-(1-(2-(3-methoxybenzyl)-2,7-diazaspiro[3.5]nonane-7-carbonyl)-1H-pyrazol-4-yl)-N-methylacetamide] | 50 to 75 | 50 to 75 |  |  |
| CC(=O)N(C)c1cnn(C(=O)N2CCC3(CC2)CN(Cc2cccc(C(F)(F)F)c2)C3)c1 [Example 38, N-methyl-N-(1-(2-(3-(trifluoromethyl)benzyl)-2,7-diazaspiro[3.5]nonane-7-carbonyl)-1H-pyrazol-4-yl)acetamide] | ≥ 75 | ≥ 75 | ≤ 0.1 | 0.1 to 1 |
| CC(=O)N(C)c1cnn(C(=O)N2CCC3(CC2)CN(Cc2cccc(N4CCOCC4)c2)C3)c1 [Example 39, N-methyl-N-(1-(2-(3-morpholinobenzyl)-2,7-diazaspiro[3.5]nonane-7-carbonyl)-1H-pyrazol-4-yl)acetamide] | ≥ 75 | 25 to 50 |  |  |
| CC(=O)N(C)c1cnn(C(=O)N2CCC3(CC2)CN(Cc2ccccc2Cl)C3)c1 [Example 40, N-(1-(2-(2-chlorobenzyl)-2,7-diazaspiro[3.5]nonane-7-carbonyl)-1H-pyrazol-4-yl)-N-methylacetamide] | ≥ 75 | ≥ 75 | ≤ 0.1 | 0.1 to 1 |
| CC(=O)N(C)c1cnn(C(=O)N2CCC3(CC2)CN(Cc2ccccc2F)C3)c1 [Example 41, N-(1-(2-(2-fluorobenzyl)-2,7-diazaspiro[3.5]nonane-7-carbonyl)-1H-pyrazol-4-yl)-N-methylacetamide] | ≥ 75 | 50 to 75 |  |  |
| CC(=O)N(C)c1cnn(C(=O)N2CCC3(CC2)CN(Cc2ccccc2C)C3)c1 [Example 42, N-methyl-N-(1-(2-(2-methylbenzyl)-2,7-diazaspiro[3.5]nonane-7-carbonyl)-1H-pyrazol-4-yl)acetamide] | ≥ 75 | ≥ 75 |  |  |
| COc1ccccc1CN1CC2(CCN(C(=O)n3cc(N(C)C(C)=O)cn3)CC2)C1 [Example 43, N-(1-(2-(2-methoxybenzyl)-2,7-diazaspiro[3.5]nonane-7-carbonyl)-1H-pyrazol-4-yl)-N-methylacetamide] | ≥ 75 | 0 to 25 |  |  |
| CC(=O)N(C)c1cnn(C(=O)N2CCC3(CC2)CN(Cc2ccccc2C(F)(F)F)C3)c1 [Example 44, N-methyl-N-(1-(2-(2-(trifluoromethyl)benzyl)-2,7-diazaspiro[3.5]nonane-7-carbonyl)-1H-pyrazol-4-yl)acetamide] | ≥ 75 | ≥ 75 | ≤ 0.1 | ≤ 0.1 |
| CC(=O)N(C)c1cnn(C(=O)N2CCC3(CC2)CN(Cc2ccccc2N2CCCC2)C3)c1 [Example 45, N-methyl-N-(1-(2-(2-(pyrrolidin-1-yl)benzyl)-2,7-diazaspiro[3.5]nonane-7-carbonyl)-1H-pyrazol-4-yl)acetamide] | ≥ 75 | 0 to 25 |  |  |
| CC(=O)N(C)c1cnn(C(=O)N2CCC3(CC2)CN(Cc2ccccc2N2CCOCC2)C3)c1 [Example 46, N-methyl-N-(1-(2-(2-morpholinobenzyl)-2,7-diazaspiro[3.5]nonane-7-carbonyl)-1H-pyrazol-4-yl)acetamide] | 50 to 75 | 0 to 25 |  |  |
| CC(=O)N(C)c1cnn(C(=O)N2CCC3(CCN(Cc4ccc(N5CCCC5)cc4)C3)C2)c1 (centres unmarked) [Example 47, N-methyl-N-(1-(7-(4-(pyrrolidin-1-yl)benzyl)-2,7-diazaspiro[4.4]nonane-2-carbonyl)-1H-pyrazol-4-yl)acetamide] | 25 to 50 | ≥ 75 |  |  |
| CC(=O)N(C)c1cnn(C(=O)N2CCC3(CCN(Cc4c(Cl)cccc4Cl)C3)C2)c1 (centres unmarked) [Example 49, N-(1-(7-(2,6-dichlorobenzyl)-2,7-diazaspiro[4.4]nonane-2-carbonyl)-1H-pyrazol-4-yl)-N-methylacetamide] | ≥ 75 | ≥ 75 | 0.1 to 1 | 0.1 to 1 |
| CC(=O)N(C)c1cnn(C(=O)N2CCC3(CCN(Cc4ccc(Cl)cc4Cl)C3)C2)c1 (centres unmarked) [Example 51, N-(1-(7-(2,4-dichlorobenzyl)-2,7-diazaspiro[4.4]nonane-2-carbonyl)-1H-pyrazol-4-yl)-N-methylacetamide] | ≥ 75 | ≥ 75 | ≤ 0.1 | ≤ 0.1 |
